The text below walks through data of the NIST ThermoML archive (doi:10.1016/j.jct.2015.08.039).

For orientation: surface tension liquid-gas means the work needed to enlarge the surface of a liquid by unit area.

± gives the expanded uncertainty stated by the source.

The series in a line: wn = mass fraction of the nth substance listed. To be noted: 298.2 K, Pendant drop shape.

Turning to `CCCC[N+](CCCC)(CCCC)CCCC.[Br-]` [tetrabutylammonium bromide] + O, the surface tension liquid-gas reads like this: (w1 = 0.0697) 53.82 ± 1.4 mN/m; (w1 = 0.1) 50.58 ± 1.3 mN/m; (w1 = 0.14) 49.72 ± 1.2 mN/m; (w1 = 0.3) 46.19 ± 1.1 mN/m; (w1 = 0.4) 44.48 ± 1.2 mN/m.
